In publication PMC7993727, “Discovery of a novel AR/HDAC6 dual inhibitor for prostate cancer treatment” (Aging (Albany NY), 2021):

How the values were obtained:
TMPRSS2 = TMPRSS2 mRNA (qRT-PCR) and protein (Western blot) expression in VCaP cells; type: cell-based; settings: 10 nM DHT, 24 hours
Method: (§1) RNA expression level was analyzed by qRT-PCR and protein expression level was analyzed by Western blot. […] (I) Representative immunofluorescence microscopic images of VCaP cells for checking the subcellular localization of AR.
(§2) The RNA of VCaP cells was extracted using a Simply P Total RNA Extraction kit (Bioer technology) and cDNA was synthesized using a SMARTer PCR cDNA Synthesis Kit (Clontech). PSA and β-actin primers were synthesized by Sangon Biotech according to previous literature. Real-time PCR was performed using the PowerUp SYBR™ Green kit (ThermoFisher). The PCR program was run on a LightCycler 480II (Roche) and set as follows: 2 minutes at 95° C followed by 40 cycles of 30 seconds at 95° C, 15 seconds at 60° C and 30 seconds at 72° C. Data were quantified using the 2-ΔΔCt method based on the Ct values of PSA and β-actin from two parallel experiments performed in triplicate.
(§3) The whole-cell extracts were prepared in lysis buffer with a protease inhibitor cocktail (Bimake), while the xenograft tissue extracts were prepared in 0.5% Nonidet P 40 Substitute solution (Biosharp) with cocktail protease inhibitor (Bimake). Each sample containing 30 μg of total protein was loaded onto 10% SDS-PAGE and electrotransferred onto polyvinylidene fluoride membranes. […]

[1] = design: method as in PMID 27590197; settings: rats; cited from earlier work
HDAC6 = molecular target: T1, HDAC6 (Homo sapiens, UniProt Q9UBN7); experiment: acetylation of α-tubulin (HDAC6 substrate) in VCaP cells, Western blot; type: cell-based; settings: 24 hours
T1 sequence (Q9UBN7 1-1215): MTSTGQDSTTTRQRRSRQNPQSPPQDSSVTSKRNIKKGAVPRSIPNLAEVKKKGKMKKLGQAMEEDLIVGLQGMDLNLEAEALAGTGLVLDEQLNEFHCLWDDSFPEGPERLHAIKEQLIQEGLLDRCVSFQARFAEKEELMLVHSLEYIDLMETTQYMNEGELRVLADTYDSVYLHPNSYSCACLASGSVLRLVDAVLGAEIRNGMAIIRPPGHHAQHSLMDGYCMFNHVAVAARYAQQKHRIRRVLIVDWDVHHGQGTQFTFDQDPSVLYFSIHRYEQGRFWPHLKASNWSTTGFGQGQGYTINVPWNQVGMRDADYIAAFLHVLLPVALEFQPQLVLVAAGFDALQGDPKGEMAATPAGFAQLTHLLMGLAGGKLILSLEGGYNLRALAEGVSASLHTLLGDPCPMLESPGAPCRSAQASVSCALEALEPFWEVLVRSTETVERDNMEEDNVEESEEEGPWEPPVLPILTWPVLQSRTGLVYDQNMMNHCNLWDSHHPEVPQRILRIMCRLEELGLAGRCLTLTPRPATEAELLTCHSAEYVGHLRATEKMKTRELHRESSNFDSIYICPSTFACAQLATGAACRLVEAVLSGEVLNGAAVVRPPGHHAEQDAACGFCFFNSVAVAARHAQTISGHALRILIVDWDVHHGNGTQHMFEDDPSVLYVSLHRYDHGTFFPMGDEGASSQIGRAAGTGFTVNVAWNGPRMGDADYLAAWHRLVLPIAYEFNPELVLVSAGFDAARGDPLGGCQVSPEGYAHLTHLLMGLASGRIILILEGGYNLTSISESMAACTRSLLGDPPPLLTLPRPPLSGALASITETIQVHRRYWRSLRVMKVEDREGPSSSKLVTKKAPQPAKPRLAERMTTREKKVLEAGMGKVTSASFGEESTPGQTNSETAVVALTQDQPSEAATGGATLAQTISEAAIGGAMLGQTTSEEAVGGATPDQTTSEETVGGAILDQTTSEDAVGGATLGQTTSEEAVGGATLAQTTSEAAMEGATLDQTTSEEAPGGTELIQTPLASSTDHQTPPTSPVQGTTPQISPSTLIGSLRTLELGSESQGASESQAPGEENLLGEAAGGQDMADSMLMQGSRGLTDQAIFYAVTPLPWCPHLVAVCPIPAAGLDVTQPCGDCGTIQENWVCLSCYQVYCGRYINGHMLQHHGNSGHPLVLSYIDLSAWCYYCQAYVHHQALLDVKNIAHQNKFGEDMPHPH
Method: as §1
To evaluate the HDAC6 inhibition ability of Zeta55 in VCaP cells, the acetylation status of α-tubulin protein (a HDAC6 substrate) was assessed using western blot. […] We assessed the protein level of AR in VCaP cells.
The whole-cell extracts were prepared in lysis buffer with a protease inhibitor cocktail (Bimake), while the xenograft tissue extracts were prepared in 0.5% Nonidet P 40 Substitute solution (Biosharp) with cocktail protease inhibitor (Bimake). Each sample containing 30 μg of total protein was loaded onto 10% SDS-PAGE and electrotransferred onto polyvinylidene fluoride membranes. The membranes were blocked with 5% skimmed milk in PBST at room temperature for 2 hours and incubated with primary antibodies at 4° C overnight. After the membranes were washed with PBST three times, they were incubated with horseradish peroxidase-conjugated anti-rabbit or anti-mouse secondary antibody at room temperature for 1 hour. Chemiluminescent detection was performed with WesternBright ECL (Advansta). The immunoblots were visualized using the FluorChem FC3 system (ProteinSimple).

PSA = PSA mRNA (qRT-PCR) and protein (Western blot) expression in VCaP cells; type: cell-based; settings: 10 nM DHT, 24 hours
Method: as §1, §2, §3

- α-tubulin acetylation (HDAC6): did not
Compound: CNC(=O)c1ccc(N2C(=S)N(c3ccc(C#N)c(C(F)(F)F)c3)C(=O)C2(C)C)cc1F [MDV3100, reference compound]
- DHT-induced endogenous mRNA and protein expression of TMPRSS2 (TMPRSS2): significantly suppressed
- oral bioavailability [1]: 97%
- plasma half-life [1]: 8.56 h
- DHT-induced endogenous mRNA and protein expression of PSA (PSA): significantly suppressed
